Test results from paper PMC9189929, “Synthesis, Screening and Characterization of Novel Potent Arp2/3 Inhibitory Compounds Analogous to CK-666” (Frontiers in Pharmacology, 2022).
In brackets after ≈: the same amount, converted by molar mass.

Legend:
[1] = test system: B16-F1 cells; experiment: Wound healing (cell migration) of B16-F1 cells; format: cell-based, mouse
Procedure: For the wound healing, B16-F1 cells were seeded onto 8-well Ibidi dishes coated with laminin, and grown to confluence. Wounds in the cell monolayer were obtained by scratching the monolayer with a pipet tip. Detached cells were immediately washed away and new medium containing the various compounds was added. Cells were then used for videomicroscopy.
Videomicroscopy was performed on an inverted Axio Observer microscope (Zeiss) equipped with a Pecon Zeiss incubator XL multi S1 RED LS (Heating Unit XL S, Temp module, CO2 module, Heating Insert PS and CO2 cover), Definite focus module and a Hamamatsu camera C10600 Orca-R2. Phase contrast images were taken every 30 min for 24 h using the 10X/0.25 Plan-Apochromat air objective. For immunofluorescence, slides were observed and imaged with the 63X/1.4 Plan-Apochromat oil objective. Fluorophores were excited with the HBO 100 W lamp (Osram) installed in the HXP 120 Metal halide fluorescence light source (Zeiss).
(§1) Image analysis was performed in ImageJ or FIJI software. To measure wound healing, boundaries of the wound were drawn manually at different time points, then wound size was measured.

[2] = test system: sea urchin embryos; experiment: Sea urchin embryo development assay; format: in vivo, Paracentrotus lividus
Procedure: The procedure was described in detail in [Semenova et al., 2018]. Briefly, adult sea urchins, Paracentrotus lividus L (Echinidae), were collected from the Mediterranean Sea on the Cyprus coast and kept in an aerated seawater tank. Gametes were obtained by intracoelomic injection of 0.5 M KCl. Eggs were washed with filtered seawater and fertilized by adding drops of diluted sperm. Embryos were cultured at room temperature under gentle agitation with a motor-driven plastic paddle (60 rpm) in filtered seawater. […] For treatment with test compounds, 5 ml aliquots of embryo suspension were transferred to six-well plates and incubated at a concentration of 1,000–2,000 embryos/ml. For images, sedimented embryos were concentrated in the center of the well by gentle rotation of the culture plate, and 200 μl aliquots containing several hundred embryos were used to take pictures (up to 20 images from different fields). Embryos selected for Figure 4 were representative of the population.
(§2) Stock solutions of compounds were prepared in DMSO at 50–250 mM concentration followed by a 10-fold dilution with 96% EtOH. This procedure enhanced the solubility of the test compounds in the salty seawater. Maximal tolerated concentrations of DMSO and EtOH in the assay were determined to be 0.05 and 1%, respectively. Higher concentrations of either DMSO (>0.1%) or EtOH (>1%) caused nonspecific alterations and retardation of the sea urchin embryo development independent of the treatment stage. Maximum solubility of compounds 15, 59, 69, and 71 was about 5–20 mM in seawater, since visible crystals formed at higher concentrations.
The effects were assessed after exposure of fertilized eggs (8–15 min post fertilization, 45–55 min before the first mitotic cycle completion) to 2-fold decreasing concentrations of the compound. Embryonic development was monitored until the beginning of active feeding at four-arm pluteus stage (33–36 h postfertilization). Developmental abnormalities were estimated quantitatively as minimal effective concentration (MEC), resulting in inhibition of archenteron elongation or skeletal spicule formation.

[3] = test system: B16-F1 cells; experiment: Lamellipodium formation in B16-F1 cells (cortactin immunofluorescence); format: cell-based, mouse
Procedure: Lyophilized compounds were resuspended with fresh DMSO from sealed vials (cell biology grade). Compounds, stored at +4°C, were used within a week. B16-F1 cells were seeded onto glass coverslips coated for 1 h with 25 μg/ml laminin (Sigma) in (50 mM Tris, 150 mM NaCl, pH 7.4). […] Cell were then processed for immunofluorescence.
Cells were fixed in 3.2% PFA on PBS, then quenched with 50 mM NH4Cl and permeabilised with 0.5% Triton X-100. After blocking in 2% BSA cells were incubated with antibodies (1–5 μg/ml for the primary, 5 μg/ml for the secondary). Total actin in cells was visualized by phalloidin staining. Nuclei were stained with 0.3 μg/ml DAPI (Roche). Coverslips were mounted in Dako Fluorescence Mounting Medium (Agilent). For immunofluorescence, ARPC2 rabbit polyclonal antibody (Millipore, 07–227), Cortactin mouse monoclonal 4F11 (Millipore, 05–180) were used. Secondary goat anti-mouse and anti-rabbit antibodies conjugated with Alexa Fluor 555 and 647 respectively were from Life Technologies. Phalloidin conjugated with Alexa Fluor 488 was from Tebu-bio.
as §1

[4] = target: T1, Arp2/3 (Bos taurus, UniProt A7MB62+P61157); experiment: Pyrene-actin polymerization assay; format: biochemical, bovine; settings: 20 nM Arp2/3, 250 nM N-WASP VCA; for IC50: 1.5 μM actin (10% pyrenyl-labeled), read-out: IC50 of Arp2/3-mediated actin polymerization; for Arp2/3 inhibition reached at saturation: 1.5 μM actin
T1 construct: purchased Cytoskeleton, Inc
Procedure: Actin was purified from rabbit muscle and was pyrenyl-labeled ([Carlier et al., 1984]; [Malm, 1984]). Arp2/3 was from Cytoskeleton, Inc. VCA domain of N-WASP was purified as previously described ([Clainche et al., 2003]). Pyrene-actin polymerization assays were performed as previously ([Romero et al., 2007]). Briefly, CaATP-actin was converted into MgATP-actin in (5 mM Tris, 0.2 mM ATP, 0.1 mM CaCl2, 1 mM DTT, 1 mM MgCl2, and 0.2 mM EGTA, pH 7.6) and kept on ice for no more than 1 h. Actin polymerization was monitored in (5 mM Tris, 50 mM KCl, 0.2 mM ATP, 0.1 mM CaCl2, 1 mM DTT, 1 mM MgCl2, 0.2 mM EGTA, pH 7.6) in the presence of 2% DMSO alone or 2% DMSO containing the appropriated compound concentration. The increase in fluorescence of 10% pyrenyl-labeled actin was monitored using a Safas spectrofluorimeter (λexc = 366 nm, λem = 407 nm). The maximum rate of actin polymerization was derived from the maximum slope of the polymerization curve multiplied by [total polymer]/(RFUmax—RFUmin) [total polymer] is the total actin minus the critical concentration (0.1 μM) and RFU, Relative Fluorescence Unit. The maximum elongation rates of actin polymerization were plotted as a function of the concentration of the different compounds. For CK-666, 59, 69 and 71, curves were fitted with the following equation to determine the IC50. Mrate= Rmax−Rmax−Rmin/1+IC50/(Compound Conc.) where Mrate is the measured maximum rate of actin polymerization at a given compound concentration, Rmax is the maximum rate of actin polymerization with no compound, and Rmin is the maximum rate of actin polymerization at saturating concentration of compound.
The curve of compound 15 was fitted with a linear decay. The IC50 was determined at half inhibition of actin polymerization.

[5] = test system: fish keratocytes; parameters: method as in Nolen et al., 2009; settings: ref Nolen et al., 2009; cited from earlier work
[6] = test system: sea urchin embryos; parameters: method as in Sepúlveda-ramírez et al., 2018; settings: 100 μM; ref Sepúlveda-ramírez et al., 2018; cited from earlier work
[7] = test system: MCF10A cells; experiment: EdU incorporation / cell cycle progression screen in MCF10A cells; format: cell-based, human; settings: for IC50: Homo sapiens, MCF-10A, 18 h treatment, rough values from Figure 1 graphs, read-out: IC50 (concentration required for 50% decrease of EdU-positive cells); for Outcome of EdU incorporation screen: 0.025 to 100 μM
Procedure: For cell cycle progression using EdU, MCF10A cells were seeded in 384-well plates at a density of 800 cells per well. […] EdU from kit C10337 (ThermoFischer Scientific, Waltham, MA, United States) was then added to the cells at 10 μM and incubated for 2.5 h. Cells were fixed in 4% paraformaldehyde for 30 min at room temperature. Click-iT reaction was performed for 1 h at room temperature, protected from light, with 5 µM Alexa Fluor 488 azide in (100 mM Tris, 1 mM CuSO4, 50 mM Ascorbic Acid, pH 8.5). Nuclei were counterstained with Hoechst 33,342 (Thermo Fisher Scientific). Imaging and analysis were performed using the ImageXpress Micro XL High-Content Screening System (Molecular Devices LLC, San Jose, CA, United States). IC50 values were determined by sigmoidal curve fitting using GraphPad Prism six software.

[8] = test system: Arp2/3; settings: introduction statement, no reference given; read-out: IC50 of inhibition of Arp2/3 activation; cited from earlier work
[9] = test system: B16-F1 cells; experiment: Cell viability (MTS) of B16-F1 cells; format: cell-based, mouse; settings: 100 μM, 4 h
Procedure: Cell viability was assessed using the CellTiter 96® AQueous One Solution Cell Proliferation kit (Promega) on a Multiscan Spectrum spectrophotometer (Thermo LifeSciences), with absorbance read at 490 nm.

[10] = Maximum solubility in seawater; format: physicochemical; settings: saline or isotonic, kinetic from dmso stock, visible crystals formed at higher concentrations
Procedure: as §2

[11] = observed up to four-arm mid-pluteus stage
[12] = treated at zygote stage, monitored to four-arm pluteus

For `Cc1[nH]c2ccccc2c1CCNC(=O)c1ccccc1F` [CK-666, 2-Fluoro-N-[2-(2-methyl-1H-indol-3-yl)ethyl]benzamide], the “Inhibition of wound healing” value ([1]; 100 µM) was “inhibits wound healing”, the Developmental phenotype ([2]; 100 μM, 22°C) was “Defective gastrulation” and the “Effect on archenteron elongation” value [2, 11] was “inhibited elongation of the archenteron at approximately half-size”. The “Effect on primary mesenchyme cell (PMC) migration” value [2, 11] was “altered PMC migration resulting in the lack of ventrolateral clusters and spicules”, the “Minimum effective concentration, Inhibition of Archenteron elongation” value [2, 12] was 50 µM and the “Minimum effective concentration, Inhibition of Spicule formation” value [2, 12] was 25 µM. The “Effect on cleavage and embryo spinning (antimitotic microtubule destabilizing effects)” value ([2]; up to 20–50 μM) was “did not affect cleavage and did not induce embryo spinning”, the “Inhibition of lamellipodium formation” value ([3]; 100 μM, 1 h) was “blocked lamellipodium formation almost completely” and the IC50 [4] was 23 µM. The “Arp2/3 inhibition reached at saturation” value [4] was 78%, the “Inhibition of migration of fish keratocytes” value [5] was “unable to inhibit the migration of fish keratocytes” and the “Effect on PMC migration and spiculogenesis” value [6] was “alters proper migration of PMC and formation of ventrolateral clusters with ensuing inhibition of spiculogenesis”. For the same compound, the IC50 [7] was 56.3 µM and the IC50 [8] was about 50 µM.

In the case of `Cc1[nH]c2ccc(OC(F)(F)F)cc2c1CCNC(=O)c1ccc(S(=O)(=O)N(CCCl)CCCl)cc1` [Compound 52, 4-{[Bis(2-chloroethyl)amino]sulfonyl}-N-{2-[2-methyl-5-(trifluoromethoxy)-1H-indol-3-yl]ethyl}benzamide], the “Toxicity to B16-F1 cells (viability, MTS)” value [9] is reported as “reduced the cell population by half or more”, the “Outcome of EdU incorporation screen” value [7] is reported as “scored positive” and the IC50 [7] is reported as 3.17 µM.

With `Cc1[nH]c2ccc(F)cc2c1CCNC(=O)c1cc(S(=O)(=O)N(C)C)c(Cl)cc1Cl` [Compound 64, 2,4-Dichloro-5-[(dimethylamino)sulfonyl]-N-[2-(5-fluoro-2-methyl-1H-indol-3-yl)ethyl]benzamide] the “Toxicity to B16-F1 cells (viability, MTS)” value [9] was “reduced the cell population by half or more”, the “Outcome of EdU incorporation screen” value [7] was “scored positive” and the IC50 [7] was 6.66 µM.

With `Cc1[nH]c2c(C(F)(F)F)cccc2c1CCNC(=O)c1cc(S(=O)(=O)NC2CC2)c(Cl)cc1Cl` [Compound 71, 2,4-Dichloro-5-[(cyclopropylamino)sulfonyl]-N-{2-[2-methyl-7-(trifluoromethyl)-1H-indol-3-yl]ethyl}benzamide] the “Cell rounding and detachment in wound healing assay” value ([1]; 25 µM) was “still induced cell rounding”, the “Cell rounding and detachment in wound healing assay” value ([1]; 100 µM) was “induced cell rounding followed by detachment from the substrate” and the “Inhibition of cell migration (wound healing) compared with 100 µM CK-666” value ([1]; compound at 25 µM) was “inhibited cell migration even more effectively”. The Developmental abnormality ([2]; 5 μM) was “suppressed plutei growth”, the Developmental abnormality ([2]; 20 μM) was “defective gastrulation was observed” and the “Minimum effective concentration, Systemic Toxicity” value [2, 12] was 5 µM. The “Dose-dependent inhibition of lamellipodium formation, potency relative to CK-666” value ([3]; dose-dependent assay (Figure 2D)) was “significantly more potent than CK-666”, the IC50 [4] was 539 µM and the “Arp2/3 inhibition reached at saturation” value [4] was “saturation was not reached”. The solubility [10] was 5 to 20 µM (≈ 2.67 to 10.7 µg/mL), the “Outcome of EdU incorporation screen” value [7] was “scored positive” and the IC50 [7] was 3.58 µM.
